Experimental data taken from patent US12433892B2, “Compositions and methods of treatment for neurological disorders comprising depression” (Gliapharm SA, priority 2018, dated 2025).
Where a name gives a salt, the structure may show the parent alone.

Key:
astrocytes [1] = test: Extracellular lactate quantification; type: cell-based, mouse; design: Score_LACTATE / Score Lact.: scale not given here; details: Appendix II; for EC50: Mus musculus, Astrocyte, lactate secretion
Protocol: Primary cultures of cerebrocortical astrocytes were obtained from 1-2-day-old OF1 mouse pups (Charles River Laboratories). Briefly, cortices were isolated and minced in small pieces under a dissecting microscope. The cells were incubated for 30 min at 37° C. in a solution containing 20 U/ml of papain enzyme (Worthington Biochemical), L-cysteine 1 mM (Sigma), and 10 kU/ml DNase I (Worthington Biochemical) for an enzymatic dissociation. Papain activity was stopped by the addition of fetal calf serum (FCS) to the solution, and a single-cell suspension was then obtained by mechanical dissociation, which consisted in cells trituration in a DMEM (D7777, Sigma-Aldrich) medium (supplemented with 44 mm NaHCO3, and 10 ml/L antibiotic/antimycotic solution) containing 10% FCS. The cells were seeded at an average density of 6×10^4 cells/cm^2 in poly-D-lysine-coated 96, 12 or 6-well culture plates, depending on their use, and incubated at 37° C. in a humidified atmosphere containing 5% CO2/95% air. Culture medium was renewed twice per week. Cells were stimulated and harvested between DIV14 and DIV17, when confluence and cell growth were optimal.
Secretion of L-lactate was determined in the extracellular medium of 96-well plated astrocytes after 90 min stimulation (at 37° C., in 5% CO2/95% air conditions) with the drug of interest. The stimulation medium was composed of D5030 medium (completed with D-glucose 5 mM and 44 mM sodium bicarbonate) for 90 min in concentrations ranging from 0 to 100 μM.
Briefly, 200 μl of a Glycine (Sigma)-Semicarbazide (Acros) 0.2M pH 10 buffer containing 3 mM NAD (Roche) and LDH 14 U/ml (Roche) was added to each well of a 96-well plate containing 30 μl aliquots complemented with 20 μl fresh complete D5030 medium. Samples were incubated at 37° C. for 1 h. After samples cooled down at room temperature, the fluorescence intensity (340 nm excitation/450 nm emission) that represents the amount of NADH produced was measured, and lactate concentration values were determined from a standard curve of L-lactate.
(§1) Statistical analysis consisted in ANOVA followed by Fisher LSD post-hoc test for pair-wise comparisons.
Levels of lactate secreted by astrocytes were measured in the extracellular medium at 90 min after stimulation with hits (molecules) from the CDC54K library.

astrocytes [2] = test: Intracellular glycogen quantification; type: cell-based, mouse; details: Prestwick hits; 10 uM, 3 h
Protocol: For glycogen dosage, a protein dosage was first performed in order to assess whether harvested astrocytes from primary cell cultures yielded enough and equivalent amounts of proteins comparing each replicate, and to ensure that the obtained differences in glycogen quantities were due to drug action and not to inner protein quantities.
Astrocytes used for these dosages were previously grown in 6-well plates for 17 days and stimulated with Vehicle (DMSO) or drug of interest (1 μM to 100 μM) for 180 min, at 37° C. 5% CO2/95% air in D5030 complete medium. Medium was removed and replaced with 600 μl of 30 mM Tris HCl, and stored at −20° C.
Proteins were dosed using the micro BCA Protein Assay kit (Thermo Scientific), as described in the manufacturer's instructions. Briefly, thawed cells were sonicated and 5 μl aliquots were placed in a transparent 96-well plate, to which we added 25 μl 30 mM Tris HCl, 70 μl H2O and 100 μl of a BCA mix (made as described in manufacturer's guidelines). After a 120 min-incubation at 37° C., absorbance was measured with Safire 2 spectrophotometer at a wavelength of 562 nm, and protein quantities were determined from a standard curve of Bovine Serum Albumin (BSA).
Glycogen was quantified using a 250 μl-aliquot of the same stimulated, thawed, and sonicated cells. After an incubation period of 30 min at 90° C. and 400 rpm, 28 μl of an acetic acid/sodium acetate (both from Sigma) 0.1M pH 4.6 buffer was added to each aliquot, which was then separated in two. Each split aliquot received whether 5 μl of amyloglucosidase (Roche) or 5 μl H2O, and all cell solutions were incubated for 120 min in a shaking 37° C.-waterbath. After a centrifugation at 16'000 G for 5 min, 20 μl of supernatant were placed 96-well plate, to which 150 μl of a mix containing 0.67 mM ATP (Roche), 0.67 mM NADP (Roche), 1.8% hexokinase/glucose-6-phosphate dehydrogenase (Roche) and 0.1M Tris Buffer-HCl/3.3 mM magnesium (Fluka)/pH 8.1 buffer was added. Fluorescence was measured with Safire 2 spectrophotometer (340 nm excitation/440 nm emission). Glycogen concentration was obtained by subtracting glucose value of samples with amyloglucosidase to samples without amyloglucosidase, and were expressed relative to the amount of proteins previously determined.
Levels of intracellular glycogen in astrocytes were measured at 3 h after stimulation with 20 hits from the Prestwick library (10 μM each), as shown in FIG. 2. n=6-10; Ctrl pos. is glutamate (0.5 mM). Statistical analysis consisted in ANOVA followed by Fisher LSD post-hoc test for pair-wise comparisons.
as §1

| EC50 (astrocytes [1]) [µM] | Compound | Score Lact. (astrocytes [1]) | Glycogen (statistical significance of glycogen degradation) (astrocytes [2]) |
| --- | --- | --- | --- |
|  | c1nc(NCc2ccc3c(c2)OCO3)c2sccc2n1 [T5787526] | 0.71 |  |
| 6.02 | CC(C)S(=O)(=O)c1ccc(NS(=O)(=O)c2ccc(Cl)cc2)cc1 [T5311200] | 0.56 |  |
| 4.26 | CCNc1cc(C)nc(Nc2ccc(NC(=O)Cc3ccccc3)cc2)c1 [G869-0064] | 0.54 |  |
|  | c1ccc(CN2CCOCC2)c(CNc2ncnc3ccsc23)c1 [T5790476] | 0.79 |  |
| 1.59 | Cc1ccc(-c2c[nH]c(NC(=O)c3ccncc3)n2)cc1[N+](=O)O [T5694329] | 0.47 |  |
|  | N#Cc1cc(C(=O)c2cc(F)ccc2O)cn(-c2ccc(F)c(Cl)c2)c1=O [T0516-6894] | 0.38 |  |
|  | Cc1c(C)c2c(c(C)c1O)CCC(C)(COc1ccc(CC3SC(=O)NC3=O)cc1)O2 (stereo not drawn) [Troglitazone] |  | *** (***p<0.001) |
|  | Cc1cc(/C=C/c2ccc3cc(N(C)C)ccc3[n+]2C)c(C)n1-c1ccccc1 [Pyrvinium pamoate] |  | **** (****p<0.0001) |
|  | CCc1ccc(NS(=O)(=O)c2c(C)c(-c3nnc(C4CC4)o3)n(C)c2C)cc1 [M950-1515] | 0.67 |  |
|  | CC[N+](CC)(CC(=O)Nc1c(C)cccc1C)Cc1ccccc1 [Denatonium benzoate] |  | ** (**p<0.01) |
|  | COc1ccc(C(C)NC(=O)c2cc(=O)c3ccccc3o2)cc1F (stereo not drawn) [T5710343] | 0.67 |  |
|  | CCCC(=O)Nc1nc(-c2ccc3c(c2)CCO3)cs1 [T5691896] | 0.38 |  |
|  | CC(=O)N1CC(C)(C)c2cc(S(=O)(=O)Nc3ccc(F)cc3C)ccc21 [L302-0181] | 0.52 |  |
| 5.82 | O=C(Nc1cccc([N+](=O)[O-])c1)c1ccc(S(=O)(=O)NCC2CCCO2)cc1 (stereo not drawn) [T6010789] | 1.31 |  |
| 6.84 | O=c1[nH]nc(NCCOc2ccc(Br)cc2)n1C1CC1 [T533260] | 0.53 |  |
|  | COc1ccc(NS(=O)(=O)c2ccc(N3CCCCS3(=O)=O)cc2)cc1 [G508-0015] | 0.67 |  |
|  | Cc1sc2nc(CSc3nc4ccccc4[nH]3)nc(N)c2c1C [T5719257] | 0.74 |  |
| 3.84 | Cc1sc2nc(CNc3nc4ccccc4c(=O)n3C)[nH]c(=O)c2c1C [T0517-2783] | 0.46 |  |
|  | CCC(C)NS(=O)(=O)c1ccc(Oc2ccc(C)cc2)cc1 (stereo not drawn) [T5400234] | 0.33 |  |
|  | CC(=O)Nc1cccc(NC(=O)CSc2nc(C)c(C)n2C2CCCC2)c1 [T5788339] | 0.75 |  |
|  | COc1cccc(C(CNc2nc(C(F)(F)F)nc3ccccc23)N(C)C)c1 (stereo not drawn) [T5800607] | 063 |  |
|  | COc1ccc(NS(=O)(=O)c2cccc(NC(=O)c3ccccc3)c2)cc1 [T5274959] | 0.68 |  |

| EC50 (astrocytes [1]) [µM] | Compound | Score Lact. (astrocytes [1]) | Glycogen (statistical significance of glycogen degradation) (astrocytes [2]) |
| --- | --- | --- | --- |
| 5.36 | CCN(CC)S(=O)(=O)c1ccc(S(=O)(=O)Nc2ccc(C)cc2C)cc1 [T5453923] | 0.66 |  |
|  | CCCCOc1cc(C(=O)NCCN(CC)CC)c2ccccc2n1 [Dibucaine] |  | * (*p<0.05) |
|  | CCc1ccccc1NC(=O)CN(C)c1ncnc2c1oc1ccccc12 [T5712071] | 0.8 |  |
|  | CCNc1cc(C)nc(Nc2ccc(NC(=O)c3cccs3)cc2)n1 [G869-0071] | 0.63 |  |
| 4.61 | Cc1nc2ccc(NC(=O)c3ccc4c(c3)CC(C)N4S(C)(=O)=O)cc2[nH]1 (stereo not drawn) [T5606387] | 0.38 |  |
|  | Clc1ccc2c(c1)CCc1cccnc1C2=C1CCNCC1 [Desloratadine] |  | * (*p<0.05) |
|  | CC(COc1ccccc1)NC(C)C(O)c1ccc(O)cc1 (stereo not drawn) [Isoxsuprine hydrochloride] |  | ** (**p<0.01) |
|  | COc1ccc(NS(=O)(=O)c2cccc(NC(=O)c3cccs3)c2)cc1 [T0517-4117] | 0.91 |  |
|  | O=C(Nc1ccc(F)c(F)c1)c1ccc(Cl)c(S(=O)(=O)N2CCCC2)c1 [T5450239] | 0.67 |  |
|  | CCOc1ccc(C2(O)C(C)[N+]3=C(CCC3)N2c2ccc(OC)cc2)cc1.[Br-] (stereo not drawn) [T0500-6629] | 0.61 |  |
| 5.5 | O=S(=O)(Nc1ccc(F)cc1)c1ccc(F)c(Cl)c1 [T6947848] | 0.98 |  |
|  | CC(C)[N+](C)(CCOC(=O)C1c2ccccc2Oc2ccccc21)C(C)C [Propantheline bromide] |  | **** (****p<0.0001) |
|  | CCc1ccc(S(=O)(=O)Nc2cc3c(cc2C)n(C)c(=O)n3C)cc1 [G433-0293] | 0.74 |  |
|  | CC(C)(C)NS(=O)(=O)c1cccc(C(=O)Nc2ccncc2)c1 [T5827594] | 0.71 |  |
|  | COc1ccccc1NC(=O)CO/N=C(/N)c1cccc(C(F)(F)F)c1 [T5770640] | 0.55 |  |
|  | Cn1c(=O)c(N2CCC(NC(=O)Nc3cccc(Cl)c3)CC2)nc2ccccc21 [L932-0267] | 0.53 |  |
|  | FC(F)(F)c1cccc(CNc2ncnc3[nH]ncc23)c1 [F5285-0069] | 0.36 |  |
|  | N#Cc1ccc(S(=O)(=O)Nc2ccccc2C(=O)NCc2ccccc2)cc1 [T5673322] | 0.63 |  |
|  | CCn1c(=O)c(C)nc2cc(C(=O)N(Cc3ccc(F)cc3)C3CC3)ccc21 [T5586091] | 0.45 |  |
| 5.87 | Cc1cccc(NS(=O)(=O)c2ccc(Cl)c(Cl)c2)c1 [F3394-1364] | 0.33 |  |
|  | COc1cc(C)c(NC(=O)Cc2ccc(Cl)c(Cl)c2)cc1OC [T5783794] | 0.44 |  |
|  | CS(=O)(=O)NC1CCN(C(=O)c2ccc(F)cc2)C1 (stereo not drawn) [Z603-8037] | 0.32 |  |
